Assay results from article PMC4498246, “Synthesis, characterization, and pharmacological evaluation of novel azolo- and azinothiazinones containing 2,4-dihydroxyphenyl substituent as anticancer agents” (Monatshefte Fur Chemie, 2015).

Key:
Assay type in all cases: cell-based
[1] = system: human colon carcinoma HT-29; experiment: MTT proliferation assay, HT-29; settings: HT-29 cells, 96 h
Method: (§1) The anticancer effect of compounds was tested in non-small cell lung cancer A549, colon carcinoma HT-29, and glioma C6 cells. The cells were exposed to either culture medium as the control culture or the compounds in concentrations of 10, 25, 50, and 100 μmol dm^−3. […] Cisplatin was used as a reference drug.
(§2) Human non-small cell lung cancer A549 (Cat. No. 86012804), human colon adenocarcinoma HT-29 (Cat. No. 91072201), rat glioma C6 (Cat. No. 92090409) cell lines were obtained from the PHE Culture Collections (Public Health England Culture Collections, Porton Down, Salisbury, UK). Primary culture of normal human skin fibroblasts (HSF) was obtained by the outgrowth technique from skin explants of young persons in our laboratory. The cells were kept in the following culture media purchased from Sigma (Sigma Chemicals, St. Louis, MO, USA): A549—3:1 mixture of DMEM and Nutrient mixture F-12 Ham; C6 and HSF—DMEM, HT-29—1:1 mixture of DMEM and Nutrient mixture F-12 Ham. All media were supplemented with 10 % FBS (Sigma), penicillin (100 U cm^−3, Sigma) and streptomycin (100 μg cm^−3, Sigma). The cultures were kept at 37 °C in a humidified atmosphere of 95 % air and 5 % CO2.
(§3) Cancer cells were plated on 96-well microplates at a density of 1 × 10^4 (A549), 3 × 10^4 (HT-29), and 0.5 × 10^4 (C6) cells cm^−3. Next day, the culture medium was removed and the cells exposed to serial dilutions of compounds (10, 25, 50, and 100 μmol dm^−3) in a fresh medium. Cell proliferation was assessed after 96 h using the MTT method in which the yellow tetrazolium salt (MTT) is metabolized by viable cells to purple formazan crystals. The cancer cells were incubated for 3–4 h with MTT solution (5 mg cm^−3). Formazan crystals were solubilized overnight in the SDS buffer (10 % SDS in 0.01 mol dm^−3 HCl) and the product quantified spectrophotometrically by measuring absorbance at the 570 nm wavelength using a Elx800 microplate reader (BIO-TEK, Highland Park, Winooski, Vermont, USA).

[2] = system: normal human skin fibroblasts HSF; experiment: LDH cytotoxicity assay, skin fibroblasts; settings: 24 h; for Effect on death cells in the culture (protective properties, LDH): 10–100 μmol dm^−3
Method: Additionally, the influence of compounds on normal human skin fibroblast primary culture (HSF) was assessed. HSF cells were exposed to compounds (10–100 μmol dm^−3) for 24 h and the level of lactic dehydrogenase (LDH) released from the damaged cells was measured (LDH method). […] Only compound 2c in all tested concentrations and 2b in the concentration 100 μmol dm^−3 were highly toxic for skin fibroblasts. […] This may indicate protective properties of the compounds.
as §2
Skin fibroblasts HSF were plated on 96-well microplates at a density of 1 × 10^5 cells cm^−3. The following day, the culture medium was removed and the cells exposed to serial dilutions of compounds (10, 25, 50, and 100 μmol dm^−3) diluted in a fresh culture medium with a reduced amount of FBS (2 %). Cytotoxicity was detected after 24 h with the use In Vitro Toxicology Assay Kit, Lactic Dehydrogenase based (Sigma). The assay is based on the reduction of NAD by the action of lactic dehydrogenase (LDH) released from damaged cells. The resulting NADH is utilized in the stoichiometric conversion of a tetrazolium dye. The resulting coloured compound is measured spectrophotometrically. The test was carried out according to the kit procedure. The colour product was quantified spectrophotometrically at 450 nm wavelength using an Elx800 microplate reader.

rat glioma C6 cells = experiment: MTT proliferation assay, glioma C6; settings: 96 h
Method: as §1, §2, §3

[3] = system: human non-small cell lung cancer A549; experiment: MTT proliferation assay, A549; settings: A549 cells, 96 h
Method: as §1, §2, §3

IC50 (rat glioma C6 cells; Rattus norvegicus) [µM]	Compound	IC50 ([1]; Homo sapiens) [µM]	Effect on death cells in the culture (protective properties, LDH) [2]	IC50 ([3]; Homo sapiens) [µM]	also measured
35.8	Cc1cc(-c2nc3n[nH]cc3c(=O)s2)c(O)cc1O [1b, 6-(2,4-Dihydroxy-5-methylphenyl)pyrazolo[3,4-d][1,3]thiazin-4(2H)-one]	109	–	–	–
101	COc1c(O)ccc(-c2nc3n[nH]cc3c(=O)s2)c1O [1e, 6-(2,4-Dihydroxy-3-methoxyphenyl)pyrazolo[3,4-d][1,3]thiazin-4(2H)-one]	–	–	–	–
48.9	CCCc1nn(C)c2c(=O)sc(-c3ccc(O)cc3O)nc12 [2a, 5-(2,4-Dihydroxyphenyl)-1-methyl-3-propylpyrazolo[4,3-d][1,3]thiazin-7(1H)-one]	–	–	56.1	–
–	CCCc1nn(C)c2c(=O)sc(-c3ccc(O)c(C)c3O)nc12 [2b, 5-(2,4-Dihydroxy-3-methylphenyl)-1-methyl-3-propylpyrazolo[4,3-d][1,3]thiazin-7(1H)-one]	–	–	–	Cytotoxicity (LDH release) ([2]; concentration 100 μmol dm^−3): highly toxic
32.2	CCCc1nn(C)c2c(=O)sc(-c3cc(CC)c(O)cc3O)nc12 [2d, 5-(5-Ethyl-2,4-dihydroxyphenyl)-1-methyl-3-propylpyrazolo[4,3-d][1,3]thiazin-7(1H)-one]	–	–	35	–
31.8	CCCc1nn(C)c2c(=O)sc(-c3cc(Cl)c(O)cc3O)nc12 [2e, 5-(5-Chloro-2,4-dihydroxyphenyl)-1-methyl-3-propylpyrazolo[4,3-d][1,3]thiazin-7(1H)-one]	–	–	–	–
–	Cc1cc(-c2nc3[nH]cnc3c(=O)s2)c(O)cc1O [3b, 5-(2,4-Dihydroxy-5-methylphenyl)imidazo[4,5-d][1,3]thiazin-7(3H)-one]	–	induced a decrease of death cells in the culture	–	–
53.5	O=c1sc(-c2cc(Cl)c(O)cc2O)nc2[nH]cnc12 [3d, 5-(5-Chloro-2,4-dihydroxyphenyl)imidazo[4,5-d][1,3]thiazin-7(3H)-one]	–	–	–	–
–	Cc1cc(-c2nc3[nH]cnc3c(=O)s2)c(O)cc1O [4a, 5-(2,4-Dihydroxy-5-methylphenyl)imidazo[4,5-d][1,3]thiazin-7(1H)-one]	–	induced a decrease of death cells in the culture	–	–
89.7	CCc1cc(-c2nc3nc[nH]c3c(=O)s2)c(O)cc1O [4b, 5-(5-Ethyl-2,4-dihydroxyphenyl)imidazo[4,5-d][1,3]thiazine-7(1H)-one]	–	–	–	–
18.3	O=c1sc(-c2cc(Cl)c(O)cc2O)nc2nc[nH]c12 [4c, 5-(5-Chloro-2,4-dihydroxyphenyl)imidazo[4,5-d][1,3]thiazine-7(1H)-one]	61.4	–	46.7	–
–	N.N.[Cl][Pt][Cl] [cisplatin, reference compound]	–	–	–	IC50 [1]: 6 µM; IC50 (rat glioma C6 cells): 0.4 µM; IC50 [3]: 4.3 µM

Compound	IC50 (rat glioma C6 cells; Rattus norvegicus) [µM]	IC50 ([1]; Homo sapiens) [µM]	Effect on death cells in the culture (protective properties, LDH) [2]	IC50 ([3]; Homo sapiens) [µM]	also measured
Cc1c(O)ccc(-c2nc3n[nH]cc3c(=O)s2)c1O [1a, 6-(2,4-Dihydroxy-3-methylphenyl)pyrazolo[3,4-d][1,3]thiazin-4(2H)-one]	17.2	102	induced a decrease of death cells in the culture	9.2	–
CCc1cc(-c2nc3n[nH]cc3c(=O)s2)c(O)cc1O [1c, 6-(5-Ethyl-2,4-dihydroxyphenyl)pyrazolo[3,4-d][1,3]thiazin-4(2H)-one]	23.1	20.9	induced a decrease of death cells in the culture	32.2	–
CCCc1nn(C)c2c(=O)sc(-c3cc(C)c(O)cc3O)nc12 [2c, 5-(2,4-Dihydroxy-5-methylphenyl)-1-methyl-3-propylpyrazolo[4,3-d][1,3]thiazin-7(1H)-one]	27.1	157	–	–	Cytotoxicity (LDH release) ([2]; all tested concentrations (10–100 μmol dm^−3)): highly toxic
Cc1c(O)ccc(-c2nc3[nH]cnc3c(=O)s2)c1O [3a, 5-(2,4-Dihydroxy-3-methylphenyl)imidazo[4,5-d][1,3]thiazin-7(3H)-one]	33.1	–	induced a decrease of death cells in the culture	48.8	–
CCc1cc(-c2nc3[nH]cnc3c(=O)s2)c(O)cc1O [3c, 5-(5-Ethyl-2,4-dihydroxyphenyl)imidazo[4,5-d][1,3]thiazin-7(3H)-one]	8.2	75.4	induced a decrease of death cells in the culture	49.8	–
